Literature values as cited in patent US6845777B2, “Composition to reduce or quit smoking addiction” (priority 2001, dated 2005).

How the values were obtained:
[1] = average adult

## CN1CCCC1c1cccnc1 (centres unmarked) [Nicotine]
[1]
  lethal unit dose: about 60 mg
In vivo
  nicotine from the intestine that reaches the bloodstream in a not metabolized form: about 30%
  peak levels in the arteries: approximately 40 micro-grams per milliliter of blood
  plasma half-life: 0.5 h and 2 h
Inhalation of tobacco smoke
  nicotine inhaled from a cigarette that is absorbed into the bloodstream: ≤ 90%
